# Reference: patent US20260241012A1, “1,8-NAPHTHYRIDIN-2-ONE HETEROBIFUNCTIONAL BCL6 DEGRADERS” (Treeline Biosciences, Inc., priority 2022, published 2026)
# Target: T1, N-terminal HiBiT tagged BCL6 (Homo sapiens, UniProt P41182)
# T1 construct: expressed in transfected cells; host or cells: HT1080 (ATCC CCL-121), stably transduced with lentivirus pLV-UBC-N-HiBiT-BCL6-PGK-puro
# Assay: HiBiT based degradation assay
# Format: cell-based
# Conditions: HT1080 cells expressing N-terminal HiBiT tagged BCL6, 5 hours of incubation; for Ymin (5 hr): BCL6 degradation normalized with DMSO control; for DC50: four-parameter logistic model, read-out: EC50 (5 hr)
# Outline: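 Degradation measured by luminescence from the Nano-Glo HiBiT lytic reagent (15 min, room temperature), normalized to DMSO controls and fitted to a four-parameter curve.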
SMILES,Ymin (5 hr),DC50 [µM]
"CNC(=O)COc1cc2cc(Nc3nc(N4CCC(OC5CCN(c6cccc7c(C8CCC(=O)NC8=O)nn(C)c67)CC5)CC4)ncc3Cl)cnc2n(C(C)C)c1=O (stereo not drawn) [Compound 225, 2-[[6-[[5-chloro-2-[4-[[1-[3-(2,6-dioxo-3-piperidyl)-1-methyl-indazol-7-yl]-4-piperidyl]oxy]-1-piperidyl]pyrimidin-4-yl]amino]-1-isopropyl-2-oxo-1,8-naphthyridin-3-yl]oxy]-N-methyl-acetamide]",++++ (Ymin < 30%),0.01 to 0.1
"CNC(=O)COc1cc2cc(Nc3nc(N4CCN(CC5CCN(c6cccc7c(C8CCC(=O)NC8=O)nn(C)c67)CC5)CC4)ncc3Cl)cnc2n(C(C)C)c1=O (stereo not drawn) [Compound 103, 2-((6-((5-chloro-2-(4-((1-(3-(2,6-dioxopiperidin-3-yl)-1-methyl-1H-indazol-7-yl)piperidin-4-yl)methyl)piperazin-1-yl)pyrimidin-4-yl)amino)-1-isopropyl-2-oxo-1,2-dihydro-1,8-naphthyridin-3-yl)oxy)-N-methylacetamide]",++++ (Ymin < 30%),0.01 to 0.1
"CNC(=O)COc1cc2cc(Nc3nc(N4CCN(CC5CCN(c6ccc7c(C8CCC(=O)NC8=O)nn(C)c7c6)CC5)C[C@H]4CO)ncc3Cl)cnc2n(C(C)C)c1=O (stereo partly drawn) [Compound 151b, 2-((6-((5-chloro-2-((2S)-4-((1-(3-(2,6-dioxopiperidin-3-yl)-1-methyl-1H-indazol-6-yl)piperidin-4-yl)methyl)-2-(hydroxymethyl)piperazin-1-yl)pyrimidin-4-yl)amino)-1-isopropyl-2-oxo-1,2-dihydro-1,8-naphthyridin-3-yl)oxy)-N-methylacetamide]",++ (50% ≤ Ymin < 70%),< 0.01
"CNC(=O)COc1cc2cc(Nc3nc(N4CC5(CC[C@@H](Oc6ccc7c(C8CCC(=O)NC8=O)nn(C)c7c6)[C@H](C)C5)C4)ncc3Cl)cnc2n(C(C)C)c1=O (relative stereo) [Compound 185d, 2-[[6-[[5-chloro-2-[(6R,7R)-7-[3-(2,6-dioxo-3-piperidyl)-1-methyl-indazol-6-yl]oxy-6-methyl-2-azaspiro[3.5]nonan-2-yl]pyrimidin-4-yl]amino]-1-isopropyl-2-oxo-1,8-naphthyridin-3-yl]oxy]-N-methyl-acetamide]",++++ (Ymin < 30%),< 0.01
"CNC(=O)COc1cc2cc(Nc3nc(N4CCN(CC5CCN(c6cccc7c(C8CCC(=O)NC8=O)nn(C)c67)CC5(F)F)CC4)ncc3Cl)cnc2n(C(C)C)c1=O (stereo not drawn) [Compound 241, 2-((6-((5-chloro-2-(4-((1-(3-(2,6-dioxopiperidin-3-yl)-1-methyl-1H-indazol-7-yl)-3,3-difluoropiperidin-4-yl)methyl)piperazin-1-yl)pyrimidin-4-yl)amino)-1-isopropyl-2-oxo-1,2-dihydro-1,8-naphthyridin-3-yl)oxy)-N-methylacetamide]",++++ (Ymin < 30%),0.01 to 0.1
"CNC(=O)COc1cc2cc(Nc3nc(N4CCN(C[C@H]5CCN(c6ccc7c(C8CCC(=O)NC8=O)nn(C)c7c6)C5)[C@H](C)C4)ncc3Cl)cnc2n(C(C)C)c1=O (stereo partly drawn) [Compound 216c, 2-[[6-[[5-chloro-2-[(3R)-4-[[(3R)-1-[3-(2,6-dioxo-3-piperidyl)-1-methyl-indazol-6-yl]pyrrolidin-3-yl]methyl]-3-methyl-piperazin-1-yl]pyrimidin-4-yl]amino]-1-isopropyl-2-oxo-1,8-naphthyridin-3-yl]oxy]-N-methyl-acetamide]",++ (50% ≤ Ymin < 70%),< 0.01
"CNC(=O)COc1cc2cc(Nc3nc(N4CCC(CN5[C@@H](C)CN(c6cccc7c(C8CCC(=O)NC8=O)nn(C)c67)C[C@@H]5C)CC4)ncc3Cl)cnc2n(C(C)C)c1=O (stereo partly drawn) [Compound 197b, 2-[[6-[[5-chloro-2-[4-[[(2S,6S)-4-[3-(2,6-dioxo-3-piperidyl)-1-methyl-indazol-7-yl]-2,6-dimethyl-piperazin-1-yl]methyl]-1-piperidyl]pyrimidin-4-yl]amino]-1-isopropyl-2-oxo-1,8-naphthyridin-3-yl]oxy]-N-methyl-acetamide]",++++ (Ymin < 30%),0.01 to 0.1
"CNC(=O)COc1cc2cc(Nc3nc(N4CCC(CN5[C@H](C)CN(c6cccc7c(C8CCC(=O)NC8=O)nn(C)c67)C[C@@H]5C)CC4)ncc3Cl)cnc2n(C(C)C)c1=O (stereo partly drawn) [Compound 197a, 2-[[6-[[5-chloro-2-[4-[[(2R,6S)-4-[3-(2,6-dioxo-3-piperidyl)-1-methyl-indazol-7-yl]-2,6-dimethyl-piperazin-1-yl]methyl]-1-piperidyl]pyrimidin-4-yl]amino]-1-isopropyl-2-oxo-1,8-naphthyridin-3-yl]oxy]-N-methyl-acetamide]",+++ (30% ≤ Ymin < 50%),0.01 to 0.1
"CNC(=O)COc1cc2cc(Nc3nc(N4CCN(CC5CCN(c6cccc7c(C8CCC(=O)NC8=O)nn(C)c67)CC5)[C@H](CO)C4)ncc3Cl)cnc2n(C(C)C)c1=O (stereo partly drawn) [Compound 146a, 2-((6-((5-chloro-2-((3S)-4-((1-(3-(2,6-dioxopiperidin-3-yl)-1-methyl-1H-indazol-7-yl)piperidin-4-yl)methyl)-3-(hydroxymethyl)piperazin-1-yl)pyrimidin-4-yl)amino)-1-isopropyl-2-oxo-1,2-dihydro-1,8-naphthyridin-3-yl)oxy)-N-methylacetamide]",++++ (Ymin < 30%),0.01 to 0.1
"CCn1c(=O)c(OCC(=O)NC)cc2cc(Nc3nc(N4CCN(CC5CCN(c6cccc7c(C8CCC(=O)NC8=O)nn(C)c67)CC5)CC4)ncc3Cl)cnc21 (stereo not drawn) [Compound 145, 2-((6-((5-chloro-2-(4-((1-(3-(2,6-dioxopiperidin-3-yl)-1-methyl-1H-indazol-7-yl)piperidin-4-yl)methyl)piperazin-1-yl)pyrimidin-4-yl)amino)-1-ethyl-2-oxo-1,2-dihydro-1,8-naphthyridin-3-yl)oxy)-N-methylacetamide]",++++ (Ymin < 30%),< 0.01
"CNC(=O)COc1cc2cc(Nc3nc(N4CC[C@@H](CN5CCC(c6ccc7c(C8CCC(=O)NC8=O)nn(C)c7c6)CC5)[C@@H](F)C4)ncc3Cl)cnc2n(C(C)C)c1=O (relative stereo) [Compound 242b, 2-((6-((5-chloro-2-((3R,4S)-4-((4-(3-(2,6-dioxopiperidin-3-yl)-1-methyl-1H-indazol-6-yl)piperidin-1-yl)methyl)-3-fluoropiperidin-1-yl)pyrimidin-4-yl)amino)-1-isopropyl-2-oxo-1,2-dihydro-1,8-naphthyridin-3-yl)oxy)-N-methylacetamide]",++++ (Ymin < 30%),< 0.01
"CNC(=O)COc1cc2cc(Nc3nc(N4CCN(CC5CCC6(CC5)CN(c5cccc7c(C8CCC(=O)NC8=O)nn(C)c57)C6)CC4)ncc3Cl)cnc2n(C)c1=O (stereo not drawn) [Compound 149, 2-((6-((5-chloro-2-(4-((2-(3-(2,6-dioxopiperidin-3-yl)-1-methyl-1H-indazol-7-yl)-2-azaspiro[3.5]nonan-7-yl)methyl)piperazin-1-yl)pyrimidin-4-yl)amino)-1-methyl-2-oxo-1,2-dihydro-1,8-naphthyridin-3-yl)oxy)-N-methylacetamide]",+++ (30% ≤ Ymin < 50%),0.01 to 0.1
